Results published in ChEMBL document CHEMBL1201862, “PubChem BioAssay data set” (2004).
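Briefly, cells in 96-well plates were exposed to five compound concentrations for 48 h, and endpoints were estimated by linear interpolation. The concentration for 50% growth inhibition is given as GI50.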 Activity calls are given as the source filed them. No stated cut-off is given here; in the data, active = GI50 up to about 1.1 µM and inactive = higher.

What was measured:
Test in all cases: NCI tumour cell line growth inhibition, 48 h
HT-29 = tested on: HT-29
PC-3 = tested on: PC-3
DU-145 = tested on: DU-145
ACHN = tested on: ACHN
RPMI-8226 = tested on: RPMI-8226
TK-10 = tested on: TK-10
786-0 = tested on: 786-0
HCC 2998 = tested on: HCC 2998
HOP-92 = tested on: HOP-92
SNB-75 = tested on: SNB-75
MDA-MB-435 = tested on: MDA-MB-435
SN12C = tested on: SN12C
KM12 = tested on: KM12
SF-295 = tested on: SF-295
NCI/ADR-RES = tested on: NCI/ADR-RES
A549 = tested on: A549
SF-539 = tested on: SF-539
MOLT-4 = tested on: MOLT-4
A498 = tested on: A498
SK-MEL-28 = tested on: SK-MEL-28
T47D = tested on: T47D
NCI-H23 = tested on: NCI-H23
NCI-H522 = tested on: NCI-H522
UACC-62 = tested on: UACC-62
RXF 393 = tested on: RXF 393
HCT-15 = tested on: HCT-15
LOX IMVI = tested on: LOX IMVI
BT-549 = tested on: BT-549
HCT-116 = tested on: HCT-116
OVCAR-3 = tested on: OVCAR-3
COLO 205 = tested on: COLO 205
SF-268 = tested on: SF-268
MDA-MB-231 = tested on: MDA-MB-231
NCI-H460 = tested on: NCI-H460
MDA-N = tested on: MDA-N
HL-60 = tested on: HL-60
EKVX = tested on: EKVX
CCRF-CEM = tested on: CCRF-CEM
SK-MEL-5 = tested on: SK-MEL-5
U-251 = tested on: U-251
SW-620 = tested on: SW-620
SNB-19 = tested on: SNB-19
IGROV-1 = tested on: IGROV-1
OVCAR-4 = tested on: OVCAR-4
HOP-62 = tested on: HOP-62
M14 = tested on: M14
Hs-578T = tested on: Hs-578T
OVCAR-8 = tested on: OVCAR-8
SK-OV-3 = tested on: SK-OV-3
K562 = tested on: K562
OVCAR-5 = tested on: OVCAR-5
MCF7 = tested on: MCF7
UO-31 = tested on: UO-31
NCI-H226 = tested on: NCI-H226
SK-MEL-2 = tested on: SK-MEL-2
CAKI-1 = tested on: CAKI-1
UACC-257 = tested on: UACC-257
Malme-3M = tested on: Malme-3M
SR = tested on: SR

In the case of `CCOC(=O)CNC(=O)C(CCC(=O)N(C)O)NC(=O)CCC(N)C(=O)O` (stereo not drawn), the GI50 (HT-29) is reported as > 100 µM (inactive), the GI50 (PC-3) is reported as > 100 µM (inactive) and the GI50 (DU-145) is reported as > 100 µM (inactive). For the same molecule, the GI50 (ACHN) was > 100 µM (inactive), the GI50 (RPMI-8226) was > 100 µM (inactive) and the GI50 (TK-10) was > 100 µM (inactive). The GI50 (786-0) was > 100 µM (inactive), the GI50 (HCC 2998) was > 100 µM (inactive) and the GI50 (HOP-92) was > 100 µM (inactive). The GI50 (SNB-75) was > 100 µM (inactive), the GI50 (MDA-MB-435) was > 100 µM (inactive) and the GI50 (SN12C) was > 100 µM (inactive). For the same molecule, the GI50 (KM12) was > 100 µM (inactive), the GI50 (SF-295) was > 100 µM (inactive) and the GI50 (NCI/ADR-RES) was > 100 µM (inactive). The GI50 (A549) was > 100 µM (inactive), the GI50 (SF-539) was > 100 µM (inactive) and the GI50 (MOLT-4) was > 100 µM (inactive). The GI50 (A498) was > 100 µM (inactive), the GI50 (SK-MEL-28) was > 100 µM (inactive) and the GI50 (T47D) was > 100 µM (inactive). The GI50 (NCI-H23) was > 100 µM (inactive), the GI50 (NCI-H522) was > 100 µM (inactive) and the GI50 (UACC-62) was > 100 µM (inactive). For the same molecule, the GI50 (RXF 393) was > 100 µM (inactive), the GI50 (HCT-15) was greater than 100 µM and the GI50 (LOX IMVI) was > 100 µM (inactive). The GI50 (BT-549) was > 100 µM (inactive), the GI50 (HCT-116) was > 100 µM (inactive) and the GI50 (OVCAR-3) was > 100 µM (inactive). The GI50 (COLO 205) was > 100 µM (inactive), the GI50 (SF-268) was > 100 µM (inactive) and the GI50 (MDA-MB-231) was > 100 µM (inactive). The GI50 (NCI-H460) was > 100 µM (inactive), the GI50 (MDA-N) was > 100 µM (inactive) and the GI50 (HL-60) was > 100 µM (inactive). The GI50 (EKVX) was > 100 µM (inactive), the GI50 (CCRF-CEM) was > 100 µM (inactive) and the GI50 (SK-MEL-5) was > 100 µM (inactive). For the same molecule, the GI50 (U-251) was > 100 µM (inactive), the GI50 (SW-620) was > 100 µM (inactive) and the GI50 (SNB-19) was > 100 µM (inactive). For the same molecule, the GI50 (IGROV-1) was > 100 µM (inactive), the GI50 (OVCAR-4) was > 100 µM (inactive) and the GI50 (HOP-62) was > 100 µM (inactive). The GI50 (M14) was > 100 µM (inactive), the GI50 (Hs-578T) was > 100 µM (inactive) and the GI50 (OVCAR-8) was > 100 µM (inactive). The GI50 (SK-OV-3) was > 100 µM (inactive), the GI50 (K562) was > 100 µM (inactive) and the GI50 (OVCAR-5) was > 100 µM (inactive). The GI50 (MCF7) was > 100 µM (inactive), the GI50 (UO-31) was > 100 µM (inactive) and the GI50 (NCI-H226) was > 100 µM (inactive). The GI50 (SK-MEL-2) was > 100 µM (inactive), the GI50 (CAKI-1) was > 100 µM (inactive) and the GI50 (UACC-257) was > 100 µM (inactive).

`CSC1(Cc2ccccn2)C(=O)Nc2cccc([N+](=O)[O-])c21` (stereo not drawn) was tested, and the GI50 (HT-29) was > 100 µM (inactive), the GI50 (PC-3) was > 100 µM (inactive) and the GI50 (DU-145) was > 100 µM (inactive). The GI50 (ACHN) was > 100 µM (inactive), the GI50 (RPMI-8226) was 78 µM (inactive) and the GI50 (TK-10) was > 100 µM (inactive). The GI50 (786-0) was > 100 µM (inactive), the GI50 (HCC 2998) was > 100 µM (inactive) and the GI50 (Malme-3M) was 47.9 µM (inactive). For the same molecule, the GI50 (HOP-92) was > 100 µM (inactive), the GI50 (SNB-75) was > 100 µM (inactive) and the GI50 (MDA-MB-435) was > 100 µM (inactive). For the same molecule, the GI50 (SN12C) was > 100 µM (inactive), the GI50 (SR) was > 100 µM (inactive) and the GI50 (KM12) was > 100 µM (inactive). The GI50 (SF-295) was > 100 µM (inactive), the GI50 (NCI/ADR-RES) was > 100 µM (inactive) and the GI50 (A549) was > 100 µM (inactive). The GI50 (SF-539) was > 100 µM (inactive), the GI50 (MOLT-4) was 33.3 µM (inactive) and the GI50 (SK-MEL-28) was 55.5 µM (inactive). For the same molecule, the GI50 (T47D) was 52.1 µM (inactive), the GI50 (NCI-H23) was > 100 µM (inactive) and the GI50 (NCI-H522) was 61.1 µM (inactive). For the same molecule, the GI50 (UACC-62) was > 100 µM (inactive), the GI50 (HCT-15) was greater than 100 µM and the GI50 (LOX IMVI) was 53.5 µM (inactive). For the same molecule, the GI50 (BT-549) was > 100 µM (inactive), the GI50 (HCT-116) was 79.1 µM (inactive) and the GI50 (OVCAR-3) was > 100 µM (inactive). For the same molecule, the GI50 (COLO 205) was > 100 µM (inactive), the GI50 (SF-268) was > 100 µM (inactive) and the GI50 (MDA-MB-231) was > 100 µM (inactive). The GI50 (NCI-H460) was > 100 µM (inactive), the GI50 (MDA-N) was > 100 µM (inactive) and the GI50 (HL-60) was 42.3 µM (inactive). For the same molecule, the GI50 (EKVX) was > 100 µM (inactive), the GI50 (CCRF-CEM) was 48 µM (inactive) and the GI50 (SK-MEL-5) was > 100 µM (inactive). The GI50 (U-251) was > 100 µM (inactive), the GI50 (SW-620) was 56.4 µM (inactive) and the GI50 (SNB-19) was > 100 µM (inactive). For the same molecule, the GI50 (IGROV-1) was > 100 µM (inactive), the GI50 (OVCAR-4) was > 100 µM (inactive) and the GI50 (HOP-62) was > 100 µM (inactive). The GI50 (M14) was > 100 µM (inactive), the GI50 (Hs-578T) was > 100 µM (inactive) and the GI50 (OVCAR-8) was > 100 µM (inactive). For the same molecule, the GI50 (SK-OV-3) was > 100 µM (inactive), the GI50 (OVCAR-5) was > 100 µM (inactive) and the GI50 (MCF7) was 76 µM (inactive). The GI50 (UO-31) was > 100 µM (inactive), the GI50 (NCI-H226) was > 100 µM (inactive) and the GI50 (SK-MEL-2) was > 100 µM (inactive). For the same molecule, the GI50 (CAKI-1) was > 100 µM (inactive) and the GI50 (UACC-257) was > 100 µM (inactive).
